Patent US6676973B1, “Method of treating ovarian cancers with cadmium” (priority 1995, dated 2004)

What was measured:
A2780 cells [1] = assay: microculture tetrazolium (MTT) cytotoxicity assay, A2780; assay type: cell-based, human; conditions: for IC50: read-out: 50% cell kill (IC50)
Description: (§1) Human ovarian cancer A2780 and A2780/CP70 cells were cultured in monolayer using RPMI 1640 media supplemented with 10% fetal calf serum, 2 mM L-glutamine, 0.2 U insulin/ml, 100 U/ml penicillin, and 100 μg/ml streptomycin (GIBCO, Grands Island, N.Y.). Cells were grown in a humidified chamber containing a mixture of 5% CO2 and ambient air at 37° C. Sensitivity of A2780 and A2780/CP70 cells to Cd and to cisplatin was assessed by microculture tetrazolium (MTT) assay, as described by Alley et al. Briefly, cells were plated at 1000 cells/well in 96-well plates and drug exposure was made the following day. Cadmium dichloride was initially dissolved in double distilled water (Dh2O) at 1.0 mg/ml (5.46 Mm Cadmium), and dilutions from this solution were made in media to obtain the desired drug treatment concentrations of 1 μM, 10 μM, 20 μM, 40 μM, 100 μM, 150 μM and 200 μM. Cisplatin was dissolved in PBS without Ca^++ or Mg^++ at 1.0 mg/ml (3.33 Mm cisplatin), and dilutions from this solution was made in media to obtain the desired drug treatment concentrations of ranging from 1 μM to 300 μM. Drug treatments were for 1 hour.
(§2) After drug treatments, cells were washed twice with PBS without Ca^++ or Mg^++, treated with fresh drug-free media, and incubated for 5 days. On day 5 after drug treatment, 50 microliter of 3-(4,5-dimethylthiazol-2-yl)-2,5 diphenyltetrazolium bromide (MTT) (400 mg in 200 ml of PBS) were added to each well and incubated for 4 hours at 37° C. Analysis of optical density readings were performed using the VV Deltasoft program on a Macintosh computer (Apple, Inc., Palo Alto, Calif.) and percentage cell growth values were obtained.

A2780/CP70 cells [2] = assay type: cell-based, human; conditions: for IC50: read-out: 50% cell kill (IC50)
Description: as §1, §2

A2780 cells [3] = assay: cellular Cd accumulation after 1 hour exposure to a range of Cd doses (AAS), A2780; assay type: cell-based, human
Description: We examined the cellular Cd accumulation following 1 hour exposures to a range of Cd doses. Cells were grown in T-150 flasks (Costar, Cambridge, Mass.) to 60-80% confluence and then exposed to 10 μM, 50 μM, 100 μM and 200 μM Cd for 1 hour. Cells were harvested, immediately counted and then “wet-ashed” [20]. Total cellular Cd accumulation was measured by atomic absorption spectrometry with Zeeman background correction (AAS), and assessed as nanograms of Cd per million cells (ng Cd/10^6 cells)

A2780 cells [4] = assay: cellular drug accumulation and efflux at IC50 dose (AAS), A2780; assay type: cell-based, human; conditions: for ASSOCIATED DRUG / PERCENT REMOVED (efflux) / PERCENT ACCUMULATION / DRUG UPTAKE: A2780; for PERCENT ACCUMULATION: IC50 dose; for DRUG UPTAKE: IC50 dose 58 μM
Description: (§3) Cells were harvested at time points of 15, 30, 45, and 60 minutes during 1 hour drug exposures, and at 1 and 3 hours after drug exposure. Cells were immediately counted and then wet-ashed. Total cellular drug. accumulation was measured by AAS, and assessed as both nanograms of Cd per million cells (ng Cd/10^6 cells) and as the percentage of the highest levels of total cellular drug.

A2780/CP70 cells [5] = assay: cellular drug accumulation and efflux at IC50 dose (AAS), A2780/CP70; assay type: cell-based, human; conditions: for PERCENT ACCUMULATION: IC50 dose; for DRUG UPTAKE: IC50 dose 128 μM
Description: as §3

[6] = test system: cellular DNA of A2780/CP70 cells; assay: Cd-DNA adduct formation after 1 hour exposure to a range of Cd doses (AAS), A2780/CP70; assay type: cell-based, human
Description: We examined the formation of Cd-DNA adduct in cellular DNA following 1 hour exposures to a range of Cd drug doses. Cells were grown in T-150 flasks (Costar, Cambridge, Mass.) to 60-80% confluence and then exposed to 0 μM (control), 10 μM, 50 μM, 100 μM and 200 μM Cd for 1 hour. Following a 1 hour drug exposure, cells were washed twice with cold PBS, harvested, and frozen immediately at −20° C. until DNA isolation. Total cellular DNA was isolated on cesium chloride density gradients. DNA was dialyzed against Dh2O with 3-4 changes over 36-48 hours, and quantitated by absorbance at 260 nm. Total Cd per unit DNA was measured by AAS.

[7] = test system: cellular DNA of A2780 cells; assay: Cd-DNA adduct formation and repair after IC50 exposure (AAS), A2780; assay type: cell-based, human
Description: (§4) We examined the formation and removal of Cd-DNA adduct in cellular DNA following 1 hour drug exposures. […] An aliquot of cells was harvested before drug treatment (time zero). Following a 1 hour drug exposure, cells were washed and harvested at. the following time points: 0 hour (immediately at the end of Cd exposure), 1 hour, 6 hour, and 24 hours. Cells were frozen immediately at −20° C. until DNA isolation. Total cellular DNA was isolated and assayed as described above, and total Cd per unit DNA was measured by AAS.

[8] = test system: cellular DNA of A2780/CP70 cells; assay: Cd-DNA adduct formation and repair after IC50 exposure (AAS), A2780/CP70; assay type: cell-based, human
Description: as §4

[9] = test system: liver and lung tumors in B6C3F1 mice; conditions: single dose of NDEA followed by cadmium chloride in the drinking water; cited from earlier work
[10] = A2780 cells, 1 hour exposure, MTT
[11] = A2780/CP70 cells, 1 hour exposure, MTT
[12] = 0 hours after 1 hour IC50 exposure
[13] = 1 hour after 1 hour IC50 exposure
[14] = 3 hours after 1 hour IC50 exposure
[15] = 3 hours after 1 hour IC50 exposure, listed as Cadmium

## [Cl][Cd][Cl] [Cd, Cadmium dichloride]
A2780 cells [1]; [10]
  10% cell kill: 0.45 µM
  90% cell kill: 130 µM
  IC50: 58 µM
A2780/CP70 cells [2]; [11]
  10% cell kill: 28 µM
  90% cell kill: 195 µM
  IC50: 128 µM
A2780/CP70 cells [2]; compared with 10-fold resistance to cisplatin
  level of cross-resistance of A2780/CP70 cells to Cd: approximately equal level
A2780/CP70 cells [2]; on a μM basis, 50% cell kill
  A2780/CP70 cells more sensitive to Cd (than to cisplatin): 1.25 fold
A2780 cells [3]; A2780 cells, 1 hour exposure, up to 200 μM
  slope of linear regression, cellular Cd versus Cd dose: 0.024
A2780 cells [3]; from slopes of linear regression
  more cellular drug accumulated per unit dose, A2780 versus A2780/CP70: 4.9 fold
A2780 cells [4]; [12]
  ASSOCIATED DRUG: 20.85 ± 4.4 ng Cd/10^6 Cells
A2780 cells [4]; 0 hours after exposure
  PERCENT REMOVED (efflux): 90%
A2780 cells [4]; 15 minutes
  PERCENT ACCUMULATION: 33%
  DRUG UPTAKE: 6.89 ± 0.53 ng Cd/10^6
A2780 cells [4]; 30 minutes
  PERCENT ACCUMULATION: 47%
  DRUG UPTAKE: 9.83 ± 1.06 ng Cd/10^6
A2780 cells [4]; 45 minutes
  PERCENT ACCUMULATION: 60%
  DRUG UPTAKE: 12.47 ± 1.95 ng Cd/10^6
A2780 cells [4]; [13]
  ASSOCIATED DRUG: 12.74 ± 3.74 ng Cd/10^6 Cells
A2780 cells [4]; 1 hour after exposure
  PERCENT REMOVED (efflux): 30%
A2780 cells [4]; 60 minutes
  PERCENT ACCUMULATION: 100%
  DRUG UPTAKE: 20.85±4.49 ng Cd/10^6
A2780 cells [4]; 60 minutes, listed as Cadmium
  DRUG UPTAKE: 20.85 ± 4.49 ng Cd/10^6
A2780 cells [4]; [14]
  ASSOCIATED DRUG: 6.56±0.58 ng Cd/10^6 Cells
A2780 cells [4]; [15]
  ASSOCIATED DRUG: 6.56 ± 0.58 ng Cd/10^6 Cells
A2780 cells [4]; 3 hours after exposure
  PERCENT REMOVED (efflux): 69%
A2780 cells [4]; from slopes, respective IC50 doses
  greater rate of Cd accumulation, A2780 versus A2780/CP70: 2.8 fold
A2780/CP70 cells [5]; [12]
  ASSOCIATED DRUG: 6.61 ± 1.4 ng Cd/10^6 Cells
A2780/CP70 cells [5]; 0 hours after exposure
  PERCENT REMOVED (efflux): 80%
A2780/CP70 cells [5]; 15 minutes
  PERCENT ACCUMULATION: 10%
  DRUG UPTAKE: 0.65 ± 0.16 ng Cd/10^6
A2780/CP70 cells [5]; 30 minutes
  PERCENT ACCUMULATION: 46%
  DRUG UPTAKE: 3.03 ± 1.11 ng Cd/10^6
A2780/CP70 cells [5]; 45 minutes
  PERCENT ACCUMULATION: 66%
  DRUG UPTAKE: 4.33 ± 2.02 ng Cd/10^6
A2780/CP70 cells [5]; [13]
  ASSOCIATED DRUG: 4.08 ± 1.4 ng Cd/10^6 Cells
A2780/CP70 cells [5]; 1 hour after exposure
  PERCENT REMOVED (efflux): 38%
A2780/CP70 cells [5]; 60 minutes
  PERCENT ACCUMULATION: 100%
  DRUG UPTAKE: 6.61±1.48 ng Cd/10^6
A2780/CP70 cells [5]; 60 minutes, listed as Cadmium
  DRUG UPTAKE: 6.61 ± 1.48 ng Cd/10^6
A2780/CP70 cells [5]; [14]
  ASSOCIATED DRUG: 2.08±0.92 ng Cd/10^6 Cells
A2780/CP70 cells [5]; [15]
  ASSOCIATED DRUG: 2.08 ± 0.92 ng Cd/10^6 Cells
A2780/CP70 cells [5]; 3 hours after exposure
  PERCENT REMOVED (efflux): 69%
[6]; FIG. 5B, A2780/CP70 versus A2780
  more DNA damage required in resistant A2780/CP70 cells to induce an equivalent level of cell kill: 5-10 lesions per million DNA bases
[6]; from slopes of the equations
  more Cd needed in A2780/CP70 to attain the same level of Cd-DNA damage as in A2780: 1.7 fold
[7]; 0 hours after 1 hour IC50 (58 μM) exposure
  Cd-DNA ADDUCT: 8.45 ± 3.59 pg Cd/μg DNA
[7]; 0 hours after IC50 exposure
  % REPAIR (amount of peak adduct removed): 0%
[7]; 1 hour after 1 hour IC50 (58 μM) exposure, peak
  Cd-DNA ADDUCT: 11.81±6.59 pg Cd/μg DNA
[7]; 1 hour after 1 hour IC50 (58 μM) exposure, peak, listed as Cadmium
  Cd-DNA ADDUCT: 11.81 ± 6.59 pg Cd/μg DNA
[7]; 1 hour after IC50 exposure
  % REPAIR (amount of peak adduct removed): no removal
[7]; 1 hour after IC50 exposure, listed as Cadmium
  % REPAIR (amount of peak adduct removed): 0%
[7]; 6 hours after 1 hour IC50 (58 μM) exposure
  Cd-DNA ADDUCT: 7.08±3.92 pg Cd/μg DNA
[7]; 6 hours after 1 hour IC50 (58 μM) exposure, listed as Cadmium
  Cd-DNA ADDUCT: 7.08 ± 3.92 pg Cd/μg DNA
[7]; 6 hours after IC50 exposure
  % REPAIR (amount of peak adduct removed): 40%
[7]; 24 hours after 1 hour IC50 (58 μM) exposure
  Cd-DNA ADDUCT: 5.28±3.11 pg Cd/μg DNA
[7]; 24 hours after 1 hour IC50 (58 μM) exposure, listed as Cadmium
  Cd-DNA ADDUCT: 5.28 ± 3.11 pg Cd/μg DNA
[7]; 24 hours after IC50 exposure
  % REPAIR (amount of peak adduct removed): 55%
[8]; 0 hours after 1 hour IC50 (128 μM) exposure, peak
  Cd-DNA ADDUCT: 15.58±3.56 pg Cd/μg DNA
[8]; 0 hours after 1 hour IC50 (128 μM) exposure, peak, listed as Cadmium
  Cd-DNA ADDUCT: 15.58 ± 3.56 pg Cd/μg DNA
[8]; 0 hours after IC50 exposure
  % REPAIR (amount of peak adduct removed): 0%
[8]; 1 hour after 1 hour IC50 (128 μM) exposure
  Cd-DNA ADDUCT: 13.31 ± 4.62 pg Cd/μg DNA
[8]; 1 hour after IC50 exposure
  % REPAIR (amount of peak adduct removed): 15%
[8]; 6 hours after 1 hour IC50 (128 μM) exposure
  Cd-DNA ADDUCT: 12.05±3.98 pg Cd/μg DNA
[8]; 6 hours after 1 hour IC50 (128 μM) exposure, listed as Cadmium
  Cd-DNA ADDUCT: 12.05 ± 3.98 pg Cd/μg DNA
[8]; 6 hours after IC50 exposure
  % REPAIR (amount of peak adduct removed): 23%
[8]; 24 hours after 1 hour IC50 (128 μM) exposure
  Cd-DNA ADDUCT: 8.47±2.85 pg Cd/μg DNA
[8]; 24 hours after 1 hour IC50 (128 μM) exposure, listed as Cadmium
  Cd-DNA ADDUCT: 8.47 ± 2.85 pg Cd/μg DNA
[8]; 24 hours after IC50 exposure
  % REPAIR (amount of peak adduct removed): 46%
[9]
  incidence and multiplicity of NDEA-induced lung tumors: reduced
  spontaneously-occurring liver tumors: eliminated

## N.N.[Cl][Pt][Cl] [cisplatin, reference compound]
A2780 cells [1]; [10]
  IC50: 16 µM
A2780 cells [1]; on a μM basis, 50% cell kill
  A2780 cells more sensitive to cisplatin than to Cd: 3.6 fold
A2780/CP70 cells [2]; [11]
  IC50: 160 µM
A2780/CP70 cells [2]; drug exposures associated with 50% cell kill
  increase in resistance of A2780/CP70 cells as compared to A2780 cells: 10 fold
